{"source": "patent US5672584A", "about": "(priority 1995, dated 1997)", "key": {"[1]": {"conditions": "rat, whole blood, pH 7.4"}, "[2]": {"conditions": "HBSS, pH 7.4, 37° C."}, "[3]": {"conditions": "incubated in human blood, pH 7.4, 37° C."}, "[4]": {"test_system": "Caco-2 cell monolayer", "conditions": "for increase in permeability compared to capped hexapeptide Ac-Trp-Ala-Gly-Gly-Asp-Ala-NH2: Caco-2 Papp ratio; for Papp (apparent permeability coefficient): applied to AP side, flux to BL side of Caco-2 monolayer; for permeation to BL side of the monolayer: AP-to-BL, in the absence or presence of protease inhibitors (bestatin, diprotin, captopril)"}, "[5]": {"conditions": "human, whole blood, pH 7.4"}, "[6]": {"assay": "in vitro", "conditions": "rat, blood, pH 7.4"}, "[7]": {"conditions": "human, Caco-2"}}, "note": "Where two headings read alike, the source gives them in different places. Where a SMILES comes first, the peptide text is derived from it. Where no end group is shown, it is not given here.", "data": [{"molecule": "C[C@@H]1NC(=O)[C@H](Cc2c[nH]c3ccccc23)NC(=O)OCOC(=O)[C@H](C)NC(=O)[C@H](CC(=O)O)NC(=O)CNC(=O)CNC1=O", "note": "[1a] (HELM PEPTIDE1{W.A.G.G.D.A}|CHEM1{[O=C(OCO[*:2])[*:1]]}$PEPTIDE1,CHEM1,1:R1-1:R1|PEPTIDE1,CHEM1,6:R2-1:R2$$$V2.0)", "values": [{"measurement": "half-life", "setting": "[1]", "value": 1.85, "unit": "h"}, {"measurement": "half-life of chemical stability (T1/2)", "setting": "[2]", "value": 3.47, "unit": "h"}, {"measurement": "T1/2 in human blood", "setting": "[3]", "value": 1.65, "unit": "h"}, {"measurement": "increase in permeability compared to capped hexapeptide Ac-Trp-Ala-Gly-Gly-Asp-Ala-NH2", "setting": "[4]", "value": "5-6 fold"}, {"measurement": "Papp (apparent permeability coefficient)", "setting": "[4]", "value": "1.17±0.11×10^-7 cm/sec."}]}, {"molecule": "Cc1cc(C)c2c(c1)OC(=O)[C@H](C)NC(=O)[C@H](CC(=O)O)NC(=O)CNC(=O)CNC(=O)[C@H](C)NC(=O)[C@H](Cc1c[nH]c3ccccc13)NC(=O)CC2(C)C", "note": "[1b] (HELM PEPTIDE1{W.A.G.G.D.A}|CHEM1{[Cc1cc(C)c(C(C)(C)CC(=O)[*:1])c(O[*:2])c1]}$PEPTIDE1,CHEM1,1:R1-1:R1|PEPTIDE1,CHEM1,6:R2-1:R2$$$V2.0)", "values": [{"measurement": "half-life", "setting": "[5]", "value": 2.88, "unit": "h"}, {"measurement": "half-life of chemical stability (T1/2)", "setting": "[2]", "value": 12.7, "unit": "h"}, {"measurement": "increase in permeability compared to capped hexapeptide Ac-Trp-Ala-Gly-Gly-Asp-Ala-NH2", "setting": "[4]", "value": "5-6 fold"}, {"measurement": "Papp (apparent permeability coefficient)", "setting": "[4]", "value": "1.21±0.36×10^-7 cm/sec."}, {"measurement": "half-life", "setting": "[6]", "value": 2.88, "unit": "h"}]}, {"molecule": "Ac-WAGGDA-NH2 [Ac-Trp-Ala-Gly-Gly-Asp-Ala-NH2, reference compound]", "values": [{"measurement": "remaining at 3 h", "setting": "[7]", "value": "75.8 ± 4", "unit": "%"}, {"measurement": "Papp (apparent permeability coefficient)", "setting": "[4]", "value": "2.1±0.5×10^-8 cm/sec."}]}, {"molecule": "WAGGDA [Trp-Ala-Gly-Gly-Asp-Ala, reference compound]", "values": [{"measurement": "remaining at 2 h", "setting": "[7]", "value": "0.8 ± 0.1", "unit": "%"}, {"measurement": "permeation to BL side of the monolayer", "setting": "[4]", "value": "no detectable quantities"}, {"measurement": "permeation to BL side of the monolayer", "setting": "[4]; listed as native peptide", "value": "totally impermeable"}]}]}
